Measured values: article PMC4373826, “Antiviral Effect of Methylated Flavonol Isorhamnetin against Influenza” (PLoS ONE, 2015)
Marks after values point to notes of the source that are not given here.

Legend:
[1] = biological target: T1, influenza virus neuraminidase (Influenza A virus, UniProt P03468); test: Neuraminidase inhibition (NAI) assay; type: biochemical; conditions: 50 μM
T1 construct: mixed with an equal volume of the virus solution (50 μL); host or cells: whole virus suspension
Description: The neuraminidase inhibition assay was carried out to examine the inhibitory effect of the tested flavonoids on influenza virus neuraminidase activity as described previously. The flavonoid compounds were used at concentrations of 10 μM, 50 μM, and 100 μM. Tamiflu, a specific NA blocker, was used as a control with a dose of 1 μM. This assay was conducted in 96-well plates; each flavonoid concentration (50 μL) was mixed with an equal volume of the virus solution (50 μL) using reaction buffer (sodium acetate buffer 150 mM, pH 7, and 1 mM calcium chloride) and incubated for 30 minutes at 37°C. For initiation of the enzymatic reaction, we added 100 μL of the substrate solution (4-MU-NANA; (2′-(4-methylumbelliferyl)-α-d-N-acetylneuraminic acid, sodium salt hydrate; Sigma-Aldrich) that dissolved in the enzyme buffer [33 mM 2-(N-morpholino) ethanesulfonic acid (MES), pH 6.5, and 4 mM CaCl2] to the final concentration of 100 μM to the flavonoids and the virus mixture (100 μL). This reaction mixture was protected from light and incubated at 37°C for 2 hr under shaking condition. For stopping of the reaction, we added the stop solution (150 μl of 0.014 N NaOH in 83% ethanol) to each well. The fluorescence of the released 4-methylumbelliferone fluorescence was measured using a fluorescence plate reader (Molecular Devices, Sunnyvale, CA, USA) (excitation 365 nm, emission 460 nm). […]

[2] = system: influenza A/PR/8/34 (H1N1); test: In ovo virus titer in embryonated chicken egg; type: in vivo
Description: Virus was serially diluted (10-fold serial dilution) and inoculated into the eggs, and then the virus titers were calculated as log10EID50/ml. At the cellular level, virus titration was determined via the hemagglutination assay (as described in detail in the WHO surveillance guidelines) and by the cytopathic effect (CPE) of MDCK cells induced by viral infection, and expressed as 50% tissue culture infectious doses (TCID50), which were calculated based on the method of Reed and Muench.In mice, 50% mouse lethal dose (MLD50) was defined as 50% egg infective dose (EID50) that led to 50% mice mortality that calculated according to Reed and Muench. The flavonoids quercetin, kaempferol, isorhamnetin, diosmetin, and eriodictyol were purchased from the Indofine Chemical Company, Hillsborough, NJ, USA. The flavonoids and PD-98059 (MEK inhibitor, Calbiochem, La Jolla, CA, USA) were dissolved in dimethylsulfoxide (DMSO, Sigma-Aldrich).The final concentration of DMSO in the culture media is 0.2% (v/v). Tamiflu (Oseltamivir, 75 mg) was purchased from Roche-Korea (Seoul, South Korea) Co. Ltd.

[3] = system: influenza A/PR/8/34 (H1N1); test: microbe, parasite or virus in culture; conditions: MDCK
[4] = Cytotoxicity assay (EZ-Cytox) in MDCK cells; type: cell-based, canine; conditions: dog; MDCK cells, 48 hr
Description: To determine the 50% cytotoxic concentration (CC50) for each of the tested flavonoid compounds, MDCK cells were seeded onto 96-well plates (NUNC, Penfield, NY, USA) at a density of 1 × 10^4 cells per well and incubated overnight for 80% confluence. MDCK cells were washed twice with PBS and the culture medium was replaced with medium containing serially diluted flavonoids (concentrations from 10μM up to 300 μM) for 48 hr at 37°C in a 5% CO2atmosphere. After the incubation period, the flavonoid-containing media was replaced with new media containing 10% EZ-Cytox (Daeil Lab Service, Seoul, South Korea), and the cells were incubated in the dark for 3 hr at 37°C in a 5% CO2 atmosphere. The optical density was measured at 480 nm using an x-Mark spectrophotometer (Bio-Rad, Hercules, CA, USA). Cytotoxicity was estimated by comparing the cell survival rate of the flavonoids-treated cells and the DMSO-treated cells with the control (virus-untreated) cells. The control cell values were arbitrarily set as the 100% survival rate. The treated cells values were normalized to the control cell values. The calculation of CC50 was carried out as described in detail in S1 Text.
The 50% cytotoxic concentration (CC50) was calculated according to the following equation:
Cytotoxicity (%) = [100-(ODt/ODs)] x100
ODt: The optical density (OD) of cells treated with the tested flavonoids.
ODs: The OD of cells treated with the control solvent (0.2 % DMSO).
After obtaining the results, we calculated the concentration that induces 50% cell death using the following equation:
(X2 - X1) X (50-Y1) / (Y2 - Y1) + X1. Where, X1 represents the lower concentration used in this experiment, while X2 represents the higher concentration. Y1 represents the mean of the percentage of the viable cells at X1 concentration. On the other hand, Y2 represents the mean of the percentage of the viable cells at X2 concentration.”

[5] = system: influenza A/PR/8/34 (H1N1)
[6] = system: virus-induced autophagic puncta / acidic vesicular organelles in MDCK cells; test: Virus-induced autophagy assay (AVO staining with AO and MDC); type: cell-based, canine; conditions: 50 μM
Description: To examine the ability of isorhamnetin to block the formation of acidic vesicular organelles (AVOs) after influenza A virus infection, we used various vital staining methods for AVOs, as described previously. Briefly, MDCK cells were cultured on 24-well plates until 80% confluence. Cells were infected with influenza A/PR/08/34 (H1N1) virus as described previously and treated with 50 μM of isorhamnetin using the 3 aforementioned methods of flavonoid treatment (pre-treatment, co-treatment, and post-treatment methods). Cells were stained with 5 μg/mL acridine orange (AO) (Sigma-Aldrich) and 50 μM of monodansylcadaverine (MDC) (Sigma-Aldrich)for 15 min at 37°C and washed 3 times with PBS, after which the cells were examined under a fluorescence microscope (Carl Zeiss, Jena, Germany) to allow detection of autophagic puncta.

T1 sequence (P03468 whole entry): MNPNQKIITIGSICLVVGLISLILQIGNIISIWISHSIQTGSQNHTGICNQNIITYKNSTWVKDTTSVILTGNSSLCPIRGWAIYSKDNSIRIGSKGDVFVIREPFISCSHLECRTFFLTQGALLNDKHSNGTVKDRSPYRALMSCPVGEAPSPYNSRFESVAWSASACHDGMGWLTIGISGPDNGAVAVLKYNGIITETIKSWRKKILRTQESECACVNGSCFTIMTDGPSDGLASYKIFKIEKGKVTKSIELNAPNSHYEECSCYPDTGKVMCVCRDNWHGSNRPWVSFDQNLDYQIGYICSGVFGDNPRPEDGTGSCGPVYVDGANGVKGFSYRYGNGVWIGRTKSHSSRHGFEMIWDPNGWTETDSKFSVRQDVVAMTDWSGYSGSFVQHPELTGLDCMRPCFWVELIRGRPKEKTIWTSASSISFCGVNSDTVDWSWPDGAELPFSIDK

COc1cc(-c2oc3cc(O)cc(O)c3c(=O)c2O)ccc1O [Isorhamnetin, isorhamnetin]
NA activity [1]: significantly inhibited
Virus titer (Embryonated chicken egg) [2]: 10^8 ^* EID50/ml
EC50 ([3]; 0.5 h, Co-treatment (0.5 hr)): 76 µM
EC50 ([3]; 1 h, Co-treatment (1 hr)): 42 µM
EC50 ([3]; 2 h, Co-treatment (2 hr)): < 30 µM
EC50 ([3]; 48 h, Post-treatment): 23 µM
EC50 ([3]; Pre-treatment (1 hr)): 51 µM
EC50 ([3]; Pre-treatment (12 hr)): 65 µM
EC50 ([3]; Pre-treatment (24 hr)): 88 µM
CC50 at 48 h [4]: > 280 µM
cell viability after viral infection [5]: increased cell viability in comparison with quercetin treatment
viral infection ([5]; 50 μM, co-treatment for 2 hr): significantly inhibited
influenza virus-induced cell death ([5]; post-treatment): apparent suppression
virus-induced autophagic puncta formation and AVO acidification ([6]; post-treatment): almost completely blocked
virus-induced autophagic puncta formation and acidification of AVOs ([6]; pre-, co-, and post-treatment): significantly suppressed
